One test has as its system IL-6. As to the kind of experiment: IL-6 AlphaLISA in LPS-primed THP1 macrophages. The conditions noted are these: Homo sapiens. (In general: Alpha assays give light when donor and acceptor beads are brought close together.)
The target in the next test is NLRP3 inflammasome (Homo sapiens, UniProt Q96P20). As to the kind of experiment: NLRP3 inflammasome activation in THP1 macrophages, IL-1β AlphaLISA.
Where [1] appears, read: THP-1, read-out: IL-6 Activity (μM).
The mark [2] stands for this setting: THP-1, read-out: IL-6 Activity (μM), THP1 macrophages, PMA, LPS priming, nigericin 6.7 uM.
Where [3] appears, read: IL-1β Activity (nM), THP1 macrophages, PMA, LPS priming, nigericin 6.7 uM activation.

Like-named read-outs stand apart in the source and are kept apart here.

Sequence of NLRP3 inflammasome (Q96P20 whole entry): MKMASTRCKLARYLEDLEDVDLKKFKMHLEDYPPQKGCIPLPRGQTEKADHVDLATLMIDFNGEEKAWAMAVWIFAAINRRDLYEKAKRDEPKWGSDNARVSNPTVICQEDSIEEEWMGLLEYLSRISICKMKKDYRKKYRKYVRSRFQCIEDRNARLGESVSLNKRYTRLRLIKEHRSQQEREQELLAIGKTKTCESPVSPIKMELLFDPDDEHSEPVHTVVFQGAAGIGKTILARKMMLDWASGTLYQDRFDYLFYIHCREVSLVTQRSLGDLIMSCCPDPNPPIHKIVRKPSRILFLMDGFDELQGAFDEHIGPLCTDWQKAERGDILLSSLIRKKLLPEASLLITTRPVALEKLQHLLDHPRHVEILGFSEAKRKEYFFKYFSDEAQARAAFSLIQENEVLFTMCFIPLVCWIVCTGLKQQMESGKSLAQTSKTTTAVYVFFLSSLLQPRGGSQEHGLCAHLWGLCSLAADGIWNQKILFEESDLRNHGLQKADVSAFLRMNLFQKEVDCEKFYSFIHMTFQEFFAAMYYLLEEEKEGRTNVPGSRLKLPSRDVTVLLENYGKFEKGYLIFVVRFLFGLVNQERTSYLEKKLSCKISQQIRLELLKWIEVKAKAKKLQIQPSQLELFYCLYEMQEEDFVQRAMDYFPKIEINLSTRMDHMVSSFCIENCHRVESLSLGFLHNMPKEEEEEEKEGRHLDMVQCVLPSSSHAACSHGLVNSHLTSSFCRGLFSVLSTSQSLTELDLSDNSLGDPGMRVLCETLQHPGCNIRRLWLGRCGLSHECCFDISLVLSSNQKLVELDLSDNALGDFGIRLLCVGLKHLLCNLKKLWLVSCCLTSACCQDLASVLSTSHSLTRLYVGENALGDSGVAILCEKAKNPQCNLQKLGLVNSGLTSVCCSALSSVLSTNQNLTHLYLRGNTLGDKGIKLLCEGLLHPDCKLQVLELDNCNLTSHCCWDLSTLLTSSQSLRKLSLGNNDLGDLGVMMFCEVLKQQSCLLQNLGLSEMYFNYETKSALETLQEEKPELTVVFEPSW

As to `Cc1cc(N[C@@H]2CCCN(C)C2)nnc1-c1ncc(F)cc1O` [compound 109], the IC50 fell in the range of 5 to 10 µM in the test on IL-6 (setting [1]) and 100 to 500 nM at NLRP3 inflammasome. The like results for `COC(C)(C)C(=O)Nc1cc(C)c(-c2ccccc2O)nn1` [compound 123] were, in that order, more than 10 µM and more than 1000 nM. As to `Cc1cc(N[C@@H]2CCCN(CCF)C2)nnc1-c1ccccc1O` [compound 39], the figures for the IC50 with IL-6 (setting [2]) and at NLRP3 inflammasome (setting [3]) were more than 10 µM and 10 to 100 nM, respectively. Taken in the same sequence, the figures for `Cc1cc(N[C@@H]2CCCN(C)C2)nnc1-c1ccc(C(=O)O)cc1O` [compound 92] were more than 10 µM and 10 to 100 nM. Turning to `Cc1cc(N[C@@H]2C[C@@H](F)CN(C)C2)nnc1-c1ccccc1O` [compound 41], the IC50 against NLRP3 inflammasome (setting [3]) lay in the range of 10 to 100 nM. In the case of `Cc1cc(C(F)(F)F)cc(O)c1-c1ccc(N[C@@H]2CCCN(C)C2)nn1` [compound 75], the IC50 in the test with IL-6 (setting [1]) is more than 10 µM. `Cc1cc(N[C@@H]2C[C@H](F)CN(C)C2)nnc1-c1ccccc1O` [compound 42]: the IC50 in the test with IL-6 (setting [2]) is more than 10 µM; at NLRP3 inflammasome (setting [3]), 10 to 100 nM.

`Cc1cc(NC[C@@H]2CCC(F)(F)C2)nnc1-c1ccccc1O` [compound 114]: the results for the IC50 in the test on IL-6 (setting [1]) and at NLRP3 inflammasome were more than 10 µM and more than 1000 nM, respectively. On to `Cc1cc(-c2ccccc2O)nnc1N[C@@H]1CCCN(CCF)C1` [compound 85], for which the IC50 was more than 10 µM in the test on IL-6 (setting [2]) and more than 1000 nM at NLRP3 inflammasome (setting [3]).

For `Cc1cc(N[C@@H]2CC[C@@H](C(=O)O)N(C)C2)nnc1-c1ccccc1O` [compound 95], the values for the IC50 with IL-6 (setting [2]) and at NLRP3 inflammasome (setting [3]) were more than 10 µM and more than 1000 nM, respectively. Consider `COC(C)(C)CNc1cc(C)c(-c2ccccc2O)nn1` [compound 124], for which the values for the IC50 in the test with IL-6 (setting [1]) and against NLRP3 inflammasome were more than 10 µM and more than 1000 nM, respectively. Consider `CCc1ccc(-c2ccc(N[C@@H]3CCCN(C)C3)nn2)c(O)c1` [compound 14], for which the IC50 with IL-6 (setting [2]) is more than 10 µM; at NLRP3 inflammasome (setting [3]) it was 10 to 100 nM. Regarding `Cc1cc(NC[C@H]2CCCN2C)nnc1-c1ccccc1O` [compound 122], the IC50 was more than 10 µM in the test on IL-6 (setting [1]) and more than 1000 nM at NLRP3 inflammasome. The like results for `Cc1cc(N[C@@H]2CCCN(C)C2)nnc1-c1ncc(C(F)(F)F)cc1O` [compound 107] were, in that order, more than 10 µM and less than 1 nM.

On to `Cc1cc(-c2c(C)cccc2O)nnc1N[C@@H]1CCCN(C)C1` [compound 78], for which the IC50 with IL-6 (setting [2]) is more than 10 µM; against NLRP3 inflammasome (setting [3]), 1 to 10 nM. Regarding `Cc1cc(-c2ccc(C#N)cc2O)nnc1N[C@@H]1CCCN(C)C1` [compound 91], the IC50 with IL-6 (setting [2]) was more than 10 µM; at NLRP3 inflammasome (setting [3]), 10 to 100 nM.

For the molecule `Cc1ccc(O)c(-c2nnc(N[C@@H]3CCCN(C)C3)cc2C)c1` [compound 68], the results for the IC50 with IL-6 (setting [2]) and against NLRP3 inflammasome (setting [3]) were more than 10 µM and 10 to 100 nM, respectively. `Cc1cc(N[C@@H]2CC[C@@H](C(=O)O)NC2)nnc1-c1ccccc1O` [compound 94]: the IC50 in the test with IL-6 (setting [2]) is more than 10 µM; at NLRP3 inflammasome (setting [3]), more than 1000 nM. The like results for `Cc1cc(N[C@H]2CN(C)CC[C@@H]2F)nnc1-c1ccc(F)cc1O` [compound 48] were, in that order, more than 10 µM and 10 to 100 nM. For the molecule `Cc1cc(C[C@@H]2CCCN(C)C2)nnc1-c1ccc(F)cc1O` [compound 36, (S)-5-fluoro-2-(4-methyl-6-((1-methylpiperidin-3-yl)methyl)pyridazin-3-yl) phenol], the IC50 in the test with IL-6 (setting [1]) was more than 10 µM; at NLRP3 inflammasome it was 10 to 100 nM. Taken in the same sequence, the figures for `Cc1cc(C[C@@H]2CCCN(C)C2)nnc1-c1ccccc1O` [compound 70] were more than 10 µM and 10 to 100 nM. With `Cc1cc(N[C@@H]2CCCN(C(C)C)C2)nnc1-c1ccc(F)cc1O` [compound 59], the IC50 in the test with IL-6 (setting [2]) was 5 to 10 µM; against NLRP3 inflammasome (setting [3]), less than 1 nM. Regarding `CCc1ccc(-c2cc(C)c(N[C@@H]3CCCN(C)C3)nn2)c(O)c1` [compound 16], at NLRP3 inflammasome (setting [3]), the IC50 fell in the range of 1 to 10 nM. In the case of `Cc1cc(-c2ccc(C(F)(F)F)cc2O)nnc1N[C@@H]1CCCN(C)C1` [compound 74], the IC50 in the test on IL-6 (setting [2]) was more than 10 µM. In turn, `Cc1cc(NC[C@H]2COCCO2)nnc1-c1ccccc1O` [compound 119] returned an IC50 at NLRP3 inflammasome of more than 1000 nM. On to `Cc1cc(-c2ccc(Cl)cc2O)nnc1N[C@@H]1CCCN(C)C1` [compound 83], for which the IC50 on NLRP3 inflammasome (setting [3]) is 1 to 10 nM.

The values are drawn from patent US20250304560A1, “MODULATORS OF NLRP3 INFLAMMASOME AND RELATED PRODUCTS AND METHODS” (Neumora Therapeutics, Inc., priority 2022, published 2025).
